Reference: US6399629B1, “Efflux pump inhibitors” (priority 1998, dated 2002)

Test system: Pseudomonas aeruginosa PAM1001
Test: checkerboard assay (broth microdilution): levofloxacin MIC in presence of efflux pump inhibitor
Assay type: cell-based
Protocol: For compounds labeled with the prefix ‘M’, potentiation effect is observed by the reduction of the minimum inhibitory concentration of levofloxacin in the presence of the experimental efflux pump inhibitor. The activity of efflux pump inhibitors (EPI) in combination with fluoroquinolones, such as levofloxacin, is assessed by the checkerboard assay (Antimicrobial Combinations. In Antibiotics in Laboratory Medicine, Ed. Victor Lorian, M.D., Fourth edition, 1996, pp 333-338) using broth microdilution method performed as recommended by the National Committee for Clinical Laboratory Standards (1997). Methods for Dilution of Antimicrobial Susceptibility Tests for Bacteria That Grow Aerobically—Fourth Edition; Approved Standard. NCCLS Document M7-A4, Vol 17 No.2). The test organism used is Pseudomonas aeruginosa PAM1001. […] The compounds tabulated below are representative of the described invention.
In these assays, multiple dilutions of two drugs, namely the EPI and levofloxacin, are being tested, alone and in combination, at concentrations equal to, above and below their respective minimal inhibitory concentrations (MICs). In the case of EPI, most of these compounds are devoid of intrinsic antimicrobial activity and are tested up to the maximum concentration of 40 μg/mL. The MIC of levofloxacin against P. aeruginosa PAM1001 is 4 μg/mL.
The EPI tested are readily soluble in water and stock solutions are prepared at a final concentration of 2 mg/mL. Stock solutions are further diluted, according to the needs of a particular assay, in Mueller Hinton Broth (MHB). Stock solution can be stored at −80° C. Quinolones are solubilized according to the instructions of the manufacturers, at a concentration of 1 mg/mL. They are then further diluted in MHB. Stock solution can be stored at −80° C.
The checkerboard assay is performed in microtiter plates. Levofloxacin is diluted in the x axis, each column containing a single concentration of levofloxacin. The EPI is diluted in the y axis, each row containing an equal concentration of EPI. The result of these manipulations is that each well of the microtiter plate contains a unique combination of concentrations of the two agents. Each EPI are tested independently.
The assay is performed in MHB with a final bacterial inoculum of 5×10^5 CFU/mL (from an early-log phase culture). Microtiter plates are incubated during 20 h at 35° C. and are read using a microtiter plate reader (Molecular Devices) at 650 nm as well as visual observation using a microtiterplate reading mirror.

Compound | Levofloxacin MIC Against P. aerugiuosa PAM1001 in Presence of Efflux Pump Inhibitor (EPI), Minimum Inhibitory Concentration (EPI Conc. 0 μg/mL) [µg/mL] | Levofloxacin MIC Against P. aerugiuosa PAM1001 in Presence of Efflux Pump Inhibitor (EPI), Minimum Inhibitory Concentration (EPI Conc. 0.625 μg/mL) [µg/mL] | Levofloxacin MIC Against P. aerugiuosa PAM1001 in Presence of Efflux Pump Inhibitor (EPI), Minimum Inhibitory Concentration (EPI Conc. 1.25 μg/mL) [µg/mL] | Levofloxacin MIC Against P. aerugiuosa PAM1001 in Presence of Efflux Pump Inhibitor (EPI), Minimum Inhibitory Concentration (EPI Conc. 2.5 μg/mL) [µg/mL] | Levofloxacin MIC Against P. aerugiuosa PAM1001 in Presence of Efflux Pump Inhibitor (EPI), Minimum Inhibitory Concentration (EPI Conc. 5 μg/ mL) [µg/mL] | Levofloxacin MIC Against P. aerugiuosa PAM1001 in Presence of Efflux Pump Inhibitor (EPI), Minimum Inhibitory Concentration (EPI Conc. 10 μg/mL) [µg/mL] | Levofloxacin MIC Against P. aerugiuosa PAM1001 in Presence of Efflux Pump Inhibitor (EPI), Minimum Inhibitory Concentration (EPI Conc. 20 μg/mL) [µg/mL] | Levofloxacin MIC Against P. aerugiuosa PAM1001 in Presence of Efflux Pump Inhibitor (EPI), Minimum Inhibitory Concentration (EPI Conc. 40 μg/mL) [µg/mL]
Cc1cc2nc(C(O)[C@@H](CCc3ccccc3)NC(=O)[C@@H]3C[C@@H](NC(=O)CN)CN3)oc2cc1C (mixture of isomers) [Compound M64, (2S,4R)-4-(2-Aminoacetamido)-N-[(1R)-1-[(RS)-(5,6-dimethyl-2-benzoxazoly)hydroxymethyl]-3-pheylpropyl]-2-pyrrolidinecarboxamide] | 4 | 4 | 4 | 4 | 4 | 4 | 4 | 0.015
Cc1cc2nc(C(O)[C@@H](CCc3ccccc3)NC(=O)[C@@H]3C[C@@H](NC(=O)[C@@H](C)N)CN3)oc2cc1C (mixture of isomers) [Compound M65, (2S,4R)-4-[(2R)-2-Aminopropionamido]-N-[(1R)-1-[(RS)-(5,6-dimethyl-2-benzoxaaolyl)hydroxymethyl]-3-phenylpropyl]-2-pyrrolidinecarboxamide] | 4 | 4 | 4 | 4 | 4 | 4 | 0.06 | 0.015
Cc1cc2nc(C(O)[C@@H](CCc3ccccc3)NC(=O)[C@H]3C[C@H](NC(=O)[C@@H](C)N)CN3)oc2cc1C (mixture of isomers) [Compound M66, (2R,4S)-4-[(2R)-2-Aminopropionamido]-N-[(1R)-1-[(RS)-(5,6-dimethyl-2-benzoxaaolyl)hydroxymethyl]-3-phenylpropyl]-2-pyrrolidinecarboxamide] | 4 | 4 | 4 | 4 | 4 | 0.125 | 0.015 | 0.015
CC(C)(C)c1ccc2oc(C(O)[C@@H](CCc3ccccc3)NC(=O)[C@H]3C[C@H](CN)CN3)nc2c1 (mixture of isomers) [Compound M68] | 4 | 4 | 4 | 4 | 4 | 4 | 0.5 | 0.015
NCCCC1CN[C@H](C(=O)N[C@H](CCc2ccccc2)C(=O)Nc2cnc3ccccc3c2)C1 (mixture of isomers) [Compound M93, (2S,4RS)-4-(3-Aminopropyl)-N-[(1R)-3-phenyl-1-(3-quiolylcarbamoyl)propyl]-2-pyrrolidinecarboxamide] | 4 | 4 | 2 | 0.25 | 0.125 | 0.015 | 0.015 | 0.008
NCC(=O)N[C@@H]1CN[C@@H](C(=O)N[C@H](CCc2ccccc2)C(=O)Nc2cnc3ccccc3c2)C1 [Compound M1, (2R,4S)-4-(2-Amionoacetamido)-N-[(1R-)-3-phenyl-1-(3-quinolylcarbamoyl)propyl]-2-pyrrolidinecarboxamide] | 4 | 4 | 4 | 4 | 2 | 0.06 | 0.015 | 0.015
NCC(=O)N[C@@H]1CN[C@@H](C(=O)N[C@H](CCc2ccccc2)C(=O)NCCCc2ccccc2)C1 [Compound M2] | 4 | 4 | 4 | 4 | 2 | 2 | 0.25 | 0.125
CC(N)C(=O)N[C@H]1CN[C@H](C(=O)N[C@H](CCc2ccccc2)C(=O)Nc2cnc3ccccc3c2)C1 (stereo partly drawn) [Compound M4, (2S,4R)-4-(2-Aminopropionamido]-N-[(1R)-3-pheyl-1-(3-quinolylcarbamoyl)propyl]-2-pyrrolidinecarboxamide] | 4 | 4 | 4 | 4 | 2 | 2 | 1 | 0.015
